Results: patent US9695481B2, “Polynucleotides comprising a reporter sequence operatively linked to a regulatory element” (UNIVERSITEIT LEIDEN, priority 2010, dated 2017)
Entries after “also recorded” stand apart in the source; their conditions may differ. Structures can show the parent of a compound that is named as a salt. Where two headings read alike, the source gives them in different places.

Key:
[1] = Genotoxicity profile; data extracted from Kirkland et al. 2008; cited from earlier work
[2] = tested on: Srxn1-GFP mES reporter cells
[3] = tested on: Bscl2-GFP and Srxn1-GFP mES reporter cells
[4] = cited from earlier work
[5] = tested on: Bscl2-GFP mES reporter cells; assay: Bscl2-GFP genotoxicity reporter; conditions: for effect on Bscl2-GFP reporter activation by CisPt or Aph: 10 uM CisPt or 1.5 uM Aph, 24 h; for Bscl2-GFP reporter induction: 24 h exposure
[6] = tested on: ATM and ATR signaling pathways (phospho-Kap1, phospho-Chk1, phospho-p53); type: cell-based, mouse; conditions: Western blot, 24 h
Protocol: Mouse ES cells were propagated on irradiated primary mouse embryonic fibroblasts as feeders according to established protocols. […] For analysis of compounds that require metabolic activation, cells were exposed for 3 h in the presence of 1% S9 rat liver extract in 3.2 mM KCl, 0.8 mM MgCl2, 0.5 mM glucose-6-phosphate and 0.4 mM NADP.
Activation of the ATM and ATR signaling pathways in response to CisPt and Aph was determined by Western blot analysis. […] Proteins were transferred to PVDF membrane (Millipore) and detected using antibodies against phospho-Kap1 (Bethyl laboratories), phospho-Chk1 (Bethyl laboratories), phospho-p53 (Cell signaling) or Hprt (Santa Cruz) as protein loading control. Proteins were visualized using enhanced chemoluminescence (ECL).

[7] = tested on: mouse ES cell lines containing a DsRed fluorescent reporter
Salmonella = conditions: cited from earlier work
[8] = tested on: mouse ES cell lines containing a DsRed fluorescent reporter; conditions: cited from earlier work
[9] = tested on: Bscl2-GFP mES reporter cells
[10] = tested on: Srxn1-GFP mES reporter cells; assay: Srxn1-GFP oxidative stress reporter; conditions: for Srxn1-GFP reporter induction: 24 h exposure, flow cytometry
[11] = Genotoxicity profile, data extracted from Kirkland et al. 2008
[12] = from which GFP reporter is induced

Compound: COc1cc([C@@H]2c3cc4c(cc3[C@@H](O[C@@H]3O[C@@H]5CO[C@@H](C)O[C@H]5[C@H](O)[C@H]3O)[C@H]3COC(=O)[C@H]23)OCO4)cc(OC)c1O [Etoposide]
- In vitro genotoxicity [1]: Pos.
- Srxn1-GFP reporter induction [2]: also induced by the genotoxic compounds, albeit to a lesser extent
- Bscl2-GFP/Srxn1-GFP Prim. toxic properties [3]: Genotoxin
- In vivo genotoxicity [4, 11]: Pos.

Compound: O=c1cc(-c2cccc3c2Sc2ccccc2S3)oc(N2CCOCC2)c1 [ku55933]
- effect on Bscl2-GFP reporter activation by CisPt or Aph ([5]; flow cytometry): unaffected
- effect on phosphorylation of Kap1, Chk1 and p53 in response to CisPt and Aph [6]: prevented phosphorylation of Kap1 and p53

Compound: CC/C(=C(/CC)c1ccc(O)cc1)c1ccc(O)cc1 [diethylstilbestrol]
- DsRed reporter expression/activation [7]: did not induce any reporter activation

Compound: COS(C)(=O)=O [MMS, methyl methanesulphonate]
- Ames test (Salmonella; [11]): Pos.
- mES DsRed reporters [8]: Pos.
- DsRed reporter expression/activation [7]: clear induction of DsRed expression
- Bscl2-GFP/Srxn1-GFP GFP Induction [3]: Pos. (considered positive when exposure to at least two different concentrations of a compound resulted in >1.5 fold induction of GFP expression)
- Bscl2-GFP/Srxn1-GFP Prim. toxic properties [3, 12]: Pro-oxidant
- In vivo genotoxicity ([4]; in vivo): Pos.

Compound: NC(=O)NO [HU, Hydroxyurea]
- Bscl2-GFP reporter induction [9]: significant induction of GFP expression
- Srxn1-GFP reporter induction [2]: slight reporter activation

Compound: O=S(=O)([O-])[O-].[Cu+2] [Copper sulfate]
- Bscl2-GFP reporter induction [9]: not induced
- Srxn1-GFP reporter induction [2]: strong, concentration-dependent increase in expression of the GFP reporter
- Bscl2-GFP/Srxn1-GFP GFP Induction [3]: Pos. (key: Pos.: considered positive when exposure to at least two different concentrations of a compound resulted in >1.5 fold induction of GFP expression)
- Bscl2-GFP/Srxn1-GFP Prim. toxic properties [3]: Pro-oxidant
- GFP expression in Srxn1, Bscl2 and Btg2 GFP reporter cell lines [3]: increased

Compound: Mitomycin C
- Srxn1-GFP reporter induction [2]: also induced by the genotoxic compounds, albeit to a lesser extent
- Bscl2-GFP/Srxn1-GFP GFP Induction [3]: Pos. (key: Pos.: considered positive when exposure to at least two different concentrations of a compound resulted in >1.5 fold induction of GFP expression)
- Bscl2-GFP/Srxn1-GFP Prim. toxic properties [3]: Genotoxin
- GFP expression in Srxn1, Bscl2 and Btg2 GFP reporter cell lines [3]: increased

Compound: aflatoxin B1
- Bscl2-GFP reporter induction with metabolic activation [5]: induced expression of the Bscl2-GFP reporter only when incubated in the presence of rat S9 mix

Compound: CN[C@@H]1C[C@H]2O[C@@](C)([C@@H]1OC)n1c3ccccc3c3c4c(c5c6ccccc6n2c5c31)C(=O)N[C@@H]4O [UCN-01]
- effect on Bscl2-GFP reporter activation by CisPt or Aph ([5]; flow cytometry): almost completely be repressed

Compound: COc1cccc2c1C(=O)c1c(O)c3c(c(O)c1C2=O)C[C@@](O)(C(=O)CO)C[C@@H]3O[C@H]1C[C@H](N)[C@H](O)[C@H](C)O1 [Doxorubicin]
- In vitro genotoxicity [1]: Pos.
- Ames test (Salmonella; [11]): Pos.
- mES DsRed reporters ([8]; Hendriks et al. 2011): Pos.
- Srxn1-GFP reporter induction [2]: also induced by the genotoxic compounds, albeit to a lesser extent
- Bscl2-GFP/Srxn1-GFP Prim. toxic properties [3]: Genotoxin
- GFP expression in Srxn1, Bscl2 and Btg2 GFP reporter cell lines [3]: increased
- In vivo genotoxicity [4, 11]: Pos.

Compound: O=[As]O [Sodium arsenite]
- In vitro genotoxicity [1]: Pos.
- Ames test (Salmonella; [11]): Neg.
- Srxn1-GFP reporter induction [10]: Specific activation; also recorded: highly responsive
- Srxn1-GFP reporter induction ([10]; listed as NaAsO2): strong, concentration-dependent increase in expression of the GFP reporter; also recorded: preferentially induced
- Bscl2-GFP reporter induction ([5]; flow cytometry): hardly responded
- Bscl2-GFP reporter induction ([5]; flow cytometry, listed as NaAsO2): not induced
- mES DsRed reporters ([8]; Hendriks et al. 2011): Pos.
- Bscl2-GFP/Srxn1-GFP GFP Induction [3]: Pos. (considered positive when exposure to at least two different concentrations of a compound resulted in >1.5 fold induction of GFP expression)
- Bscl2-GFP/Srxn1-GFP Prim. toxic properties [3, 12]: Pro-oxidant
- In vivo genotoxicity [4, 11]: Pos.

Compound: O=P1(N(CCCl)CCCl)NCCCO1 (stereo not shown) [cyclophosphamide]
- survival of Bscl2-GFP reporter cells after S9-dependent activation [9]: reduced survival
- Bscl2-GFP reporter induction with metabolic activation ([9]; mouse): induced expression of the Bscl2-GFP reporter only when incubated in the presence of rat S9 mix

Compound: C[C@@]1(CO)[C@H](O)CC[C@@]2(C)[C@H]1CC[C@H]1C[C@@H]3C[C@@]12CC[C@]3(O)CO [Aph, aphidicolin]
- Srxn1-GFP reporter induction [10]: slight reporter activation; also recorded: slightly activated
- Bscl2-GFP reporter induction ([5]; flow cytometry): significant induction of GFP expression

Compound: [Cl][Cd][Cl] [Cadmium Chloride]
- In vitro genotoxicity [1]: Pos.
- Ames test (Salmonella): Pos.
- Srxn1-GFP reporter induction [10]: Specific activation; also recorded: highly responsive
- Srxn1-GFP reporter induction ([10]; listed as CdCl2): strong, concentration-dependent increase in expression of the GFP reporter
- mES DsRed reporters ([8]; Hendriks et al. 2011): Pos.
- Bscl2-GFP/Srxn1-GFP GFP Induction [3]: Pos. (considered positive when exposure to at least two different concentrations of a compound resulted in >1.5 fold induction of GFP expression)
- Bscl2-GFP/Srxn1-GFP Prim. toxic properties [3, 12]: Pro-oxidant
- In vivo genotoxicity [4, 11]: Pos.

Compound: COc1cc2c(c(OC)c1OC)-c1c(cc3c(c1OC)OCO3)CC(C)C(C)C2 (stereo not shown) [schisandrin B]
- effect on Bscl2-GFP reporter activation by CisPt or Aph ([5]; flow cytometry): almost completely be repressed
- effect on phosphorylation of Kap1, Chk1 and p53 in response to CisPt and Aph [6]: diminished Chk1 and p53 phosphorylation

Compound: N.N.[Cl][Pt][Cl] [Cisplatin]
- Srxn1-GFP reporter induction, live cell imaging ([10]; 5 uM CisPt or 100 uM DEM, up to 24 h): hardly responsive
- Srxn1-GFP reporter induction ([10]; listed as CisPt): also induced by the genotoxic compounds, albeit to a lesser extent; also recorded: slightly activated
- Srxn1-GFP reporter induction (mRNA) ([10]; quantitative RT-PCR, 8 or 16 h): somewhat responsive
- time at which Bscl2-GFP expression became visible ([5]; 5 uM CisPt, live cell imaging): 12 h
- mES DsRed reporters ([8]; Hendriks et al. 2011): Pos.
- DsRed reporter expression/activation [7]: clear induction of DsRed expression
- mRNA expression of Ephx1-DsRed reporter and endogenous Ephx1 gene ([7]; quantitative RT-PCR, up to 24 h): transcriptionally activated
- Bscl2-GFP/Srxn1-GFP GFP Induction [3]: Pos. (considered positive when exposure to at least two different concentrations of a compound resulted in >1.5 fold induction of GFP expression)
- GFP expression in Srxn1, Bscl2 and Btg2 GFP reporter cell lines ([3]; BAC TransgeneOmics lines, 30 hrs exposure, flow cytometry): increased

Compound: CCOC(=O)/C=C\C(=O)OCC [Diethyl maleate]
- exposure time after which Srxn1-GFP expression reached a plateau ([10]; 100 uM DEM, live cell imaging): 24 h
- exposure time after which Srxn1-GFP expression was clearly detectable ([10]; 100 uM DEM, live cell imaging): 8 h
- mES DsRed reporters ([8]; Hendriks et al. 2011): Pos.
- DsRed reporter expression/activation [7]: clear induction of DsRed expression
- Srxn1-GFP reporter induction (mRNA) [2]: highly induced
- Bscl2-GFP/Srxn1-GFP Prim. toxic properties [3]: Pro-oxidant
- GFP expression in Srxn1, Bscl2 and Btg2 GFP reporter cell lines [3]: increased

Compound: Cc1cccc(Nc2cc(Cl)nc(SCC(=O)O)n2)c1C [Wyeth-14,643]
- DsRed reporter expression/activation [7]: did not induce any reporter activation

Compound: Cc1c2ccccc2c(C)c2c1ccc1ccccc12 [dimethylbenz(a)antracene]
- Bscl2-GFP reporter induction with metabolic activation ([5]; 3 h with/without S9 rat liver extract, GFP after 24 h, flow cytometry): induced expression of the Bscl2-GFP reporter only when incubated in the presence of rat S9 mix
- survival of Bscl2-GFP reporter cells after S9-dependent activation ([5]; fraction of intact cells, flow cytometry): reduced survival
